Patent US20120251514A1, “MODULATED PROGRAMMED DEATH LIGAND-1” (University Health Network, priority 2009, published 2012)

Tested on: NSG host mice
Test: xGVHD model with SHP1/2 inhibitor-treated TEFF cells (Example 16)
Type: in vivo
Conditions: for Tbet+: engrafted human T cells; for Tbet+ / TNF-α / Absolute no. of Foxp3+ T cells expressing IFN-γ / Absolute no. of Foxp3+ T cells expressing IL-2 / Absolute no. of Foxp3+ T cells expressing TNF-α / Absolute no. of Foxp3− T cells expressing IL-2 / Absolute no. of Foxp3− T cells expressing TNF-α: TEFF & PDL1-LV transduced T cells; for Post LPS survival (%): human TEFF cells + monos + TPDL1, inhibitor treatment of Teff 100 μM, LPS day 5; for TNF-α: serum 120 min after LPS; for Absolute no. of Foxp3+ T cells expressing IFN-γ / Absolute no. of Foxp3+ T cells expressing IL-2 / Absolute no. of Foxp3+ T cells expressing TNF-α / Absolute no. of Foxp3− T cells expressing IL-2 / Absolute no. of Foxp3− T cells expressing TNF-α / Absolute no. of Foxp3− T cells expressing IFN-γ: spleen day 6, PMA/ionomycin; for Absolute no. of Foxp3− T cells expressing IFN-γ: TEFF (inhibitor-treated ex vivo where labelled) & PDL1-LV transduced T cells
Text: Because PD1 receptor signaling occurs via SHP1/2, it was next hypothesized that ex vivo pharmacologic inhibition of this pathway using prevanadate and NSC87877 might also generate TEFF cells (TEFFShp1/2^in) resistant to the tolerizing effect of PDL1. NSG host mice received a combination of human Th1 cells (either unmodified, pervanadate-treated, or NSC87877-treated) and PDL1-LV transduced T cells. At day 6, absolute numbers of human T cells engrafted in the spleen were enumerated. Splenocyes were stimulated (PMA/ionomycin) and the absolute number of Foxp3-negative T cells expressing IFN-γ (i), IL-2 (ii), and TNF-α (iii) were quantified; conversely, […]
Recipients were challenged with LPS and serum was harvested 120 min later for measurement of TNF-α. Absolute numbers of engrafted human T cells expressing T-bet were quantified.
Cohorts of host mice received the human cell inocula specified, followed by LPS administration on day 5 post-transfer for assessment of lethal cytokine-mediated xGVHD.

O=S(=O)(O)c1ccc2cc(N=Nc3cc(S(=O)(=O)O)c4cccnc4c3O)ccc2c1 [NSC87877]
Tbet+: ~2.7 ×10^3
Post LPS survival (%): 0%
TNF-α: ~0.42 µg/mL
Absolute no. of Foxp3+ T cells expressing IFN-γ: ~0.1 ×10^3
Absolute no. of Foxp3+ T cells expressing IL-2: ~1.4 ×10^3
Absolute no. of Foxp3+ T cells expressing TNF-α: ~1.3 ×10^3
Absolute no. of Foxp3− T cells expressing IL-2: ~2.6 ×10^3
Absolute no. of Foxp3− T cells expressing TNF-α: ~6.0 ×10^3
Absolute no. of Foxp3− T cells expressing IFN-γ: ~1.1 ×10^3

pervanadate
Tbet+: ~2.0 ×10^3
Post LPS survival (%): 33%
TNF-α: ~0.37 µg/mL
Absolute no. of Foxp3+ T cells expressing IFN-γ: ~.3 ×10^3
Absolute no. of Foxp3+ T cells expressing IL-2: ~1.3 ×10^3
Absolute no. of Foxp3+ T cells expressing TNF-α: ~0.4 ×10^3
Absolute no. of Foxp3− T cells expressing IL-2: ~2 ×10^3
Absolute no. of Foxp3− T cells expressing TNF-α: ~3.9 ×10^3
Absolute no. of Foxp3− T cells expressing IFN-γ: ~1.5 ×10^3
